Data from paper PMC12004706, “In vitro inhibition of voltage-dependent sodium currents by the antifungal drug amorolfine” (The Journal of Biological Chemistry, 2025).

Target: T1, Nav1.7 (Homo sapiens, UniProt Q15858)
T1 construct: gene SCN9A; human Nav1.7 channels stably transfected in Expi293F cells
Test: automated whole-cell patch clamp (Qube-384); inverse apparent IC50 vs holding potential fit with four-state binding model
Type: cell-based

T1 sequence (Q15858 whole entry): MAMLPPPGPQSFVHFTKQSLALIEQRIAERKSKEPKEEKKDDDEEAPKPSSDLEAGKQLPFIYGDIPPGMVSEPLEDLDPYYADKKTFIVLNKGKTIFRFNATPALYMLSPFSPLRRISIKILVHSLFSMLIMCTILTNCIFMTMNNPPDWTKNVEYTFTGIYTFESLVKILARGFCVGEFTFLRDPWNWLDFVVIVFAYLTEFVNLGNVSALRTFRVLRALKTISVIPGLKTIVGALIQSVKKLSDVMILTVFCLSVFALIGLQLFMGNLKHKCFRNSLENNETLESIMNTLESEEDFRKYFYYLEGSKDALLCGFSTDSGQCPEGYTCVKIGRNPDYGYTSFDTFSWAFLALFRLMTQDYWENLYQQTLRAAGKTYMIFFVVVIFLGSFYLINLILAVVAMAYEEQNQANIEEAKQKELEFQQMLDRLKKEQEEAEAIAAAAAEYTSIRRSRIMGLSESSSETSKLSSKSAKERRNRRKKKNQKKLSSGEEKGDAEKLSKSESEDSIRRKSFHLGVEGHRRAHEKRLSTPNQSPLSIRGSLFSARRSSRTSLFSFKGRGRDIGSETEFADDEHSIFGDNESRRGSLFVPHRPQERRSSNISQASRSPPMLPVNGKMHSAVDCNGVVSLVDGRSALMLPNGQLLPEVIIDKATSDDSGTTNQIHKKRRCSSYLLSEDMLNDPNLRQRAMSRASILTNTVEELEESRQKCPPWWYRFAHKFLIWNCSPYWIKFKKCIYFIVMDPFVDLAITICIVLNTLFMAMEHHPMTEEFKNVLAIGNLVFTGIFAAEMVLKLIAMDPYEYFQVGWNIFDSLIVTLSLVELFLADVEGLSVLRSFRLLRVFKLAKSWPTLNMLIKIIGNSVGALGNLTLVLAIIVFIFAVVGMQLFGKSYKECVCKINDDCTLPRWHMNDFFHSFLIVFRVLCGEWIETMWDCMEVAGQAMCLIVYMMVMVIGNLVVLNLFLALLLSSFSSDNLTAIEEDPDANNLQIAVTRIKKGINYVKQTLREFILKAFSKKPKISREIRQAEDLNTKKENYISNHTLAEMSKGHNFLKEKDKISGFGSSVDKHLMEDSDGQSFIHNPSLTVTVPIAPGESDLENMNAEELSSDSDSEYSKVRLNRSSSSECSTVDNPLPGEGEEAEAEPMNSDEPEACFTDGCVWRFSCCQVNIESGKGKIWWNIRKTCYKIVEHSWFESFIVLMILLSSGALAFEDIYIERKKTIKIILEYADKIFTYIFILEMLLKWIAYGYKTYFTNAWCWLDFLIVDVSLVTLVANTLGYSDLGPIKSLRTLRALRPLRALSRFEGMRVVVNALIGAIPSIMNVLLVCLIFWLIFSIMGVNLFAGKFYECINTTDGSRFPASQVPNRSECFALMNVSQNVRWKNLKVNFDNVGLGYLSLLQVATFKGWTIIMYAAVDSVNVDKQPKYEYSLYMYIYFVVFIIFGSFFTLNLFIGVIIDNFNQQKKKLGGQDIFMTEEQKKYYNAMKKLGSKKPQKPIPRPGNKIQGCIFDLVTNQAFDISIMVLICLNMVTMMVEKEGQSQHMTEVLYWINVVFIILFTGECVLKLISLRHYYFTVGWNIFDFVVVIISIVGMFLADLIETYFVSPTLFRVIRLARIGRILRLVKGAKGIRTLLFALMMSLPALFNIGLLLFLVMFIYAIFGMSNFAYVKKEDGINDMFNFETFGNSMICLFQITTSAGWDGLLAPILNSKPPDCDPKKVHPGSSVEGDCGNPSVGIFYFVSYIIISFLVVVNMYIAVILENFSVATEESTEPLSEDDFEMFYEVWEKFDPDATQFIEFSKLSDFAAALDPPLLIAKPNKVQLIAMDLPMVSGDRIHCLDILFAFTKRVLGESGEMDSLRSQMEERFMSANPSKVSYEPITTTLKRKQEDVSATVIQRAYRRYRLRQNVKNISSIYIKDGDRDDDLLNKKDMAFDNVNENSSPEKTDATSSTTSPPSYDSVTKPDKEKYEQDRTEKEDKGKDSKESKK

Structure (SMILES): CCC(C)(C)c1ccc(CC(C)CN2C[C@@H](C)O[C@@H](C)C2)cc1 (stereo partly shown) [AMF, amorolfine]
- Ki: 3.6 µM
